≈ marks a conversion by molar mass, not a printed value. Where a SMILES comes first, the peptide text is derived from it.
Tests used:
C57BL/6J females [1] = experiment: In vivo acute toxicity; design: species or system mice; conditions: single ip dose of 0.2 mL at 250 or 500 mg/L; n = 6 per group; observed 7 days
Protocol: (§1) To study the acute toxicity of RW01, two groups of n = 6 C57BL/6J females (≈20 g) were treated intraperitoneally (ip) with a single dose of 0.2 mL of 250 and 500 mg/L concentrations of RW01, respectively. After administration and for 7 days, the following indicative signs of pain were assessed: reduced water (dehydration), food intake, isolation, self-mutilation, tremors/spasms, dyspnea, physical activity (increased/reduced), chromodacryorrhea, muscle stiffness, piloerection, teeth grinding, and weight loss. For cumulative toxicity determination, a group of n = 6, 7-week-old healthy C57BL/6J females was treated ip, with a 0.2 mL single dose per day for 3 days at a concentration equivalent to 500 mg/L. After administration and for 7 days, the same indicative signs of pain/toxicity detailed in the acute toxicity studies were evaluated.

C57BL/6J females [2] = experiment: In vivo cumulative toxicity; design: species or system mice; conditions: ip 0.2 mL once a day for 3 days at 500 mg/L; n = 6; observed 7 days
Protocol: as §1

[3] = system: PAO1 mutant MIN4_RW01_3, pmrB(M292T); experiment: MIC, E-test on MHA; format: cell-based; conditions: Pseudomonas aeruginosa, PAO1, read-out: MIC, E-test
[4] = system: PAO1 mutant MIN4_RW01_1, pmrB(R429H); experiment: MIC, E-test on MHA; format: cell-based; conditions: Pseudomonas aeruginosa, PAO1, read-out: MIC, E-test
[5] = system: PAO1 mutant MIN1_RW01_2, mexR(G58E), pilB(G326D), hutC(Y181X); experiment: MIC, E-test on MHA; format: cell-based; conditions: Pseudomonas aeruginosa, PAO1, read-out: MIC, E-test
[6] = system: PAO1 mutant MIN8_2, pilZ(nt18InsT); experiment: MIC, E-test on MHA; format: cell-based; conditions: Pseudomonas aeruginosa, PAO1, read-out: MIC, E-test
P. aeruginosa PAOUW∆oprF = experiment: MIC, CLSI broth microdilution in BD Phoenix AST Broth; format: cell-based, Pseudomonas aeruginosa
P. aeruginosa PAO1 = experiment: as above; format: cell-based, Pseudomonas aeruginosa; conditions: strain PAO1; antibiotic with RW01 at 100 mg/L
P. aeruginosa PAOΔoprM = experiment: as above; format: cell-based, Pseudomonas aeruginosa
P. aeruginosa 41A = experiment: as above; format: cell-based, Pseudomonas aeruginosa; conditions: strain 41A
P. aeruginosa PAOΔmexR = experiment: as above; format: cell-based, Pseudomonas aeruginosa
P. aeruginosa 125A = experiment: as above; format: cell-based, Pseudomonas aeruginosa; conditions: strain 125A; antibiotic with RW01 at 100 mg/L
P. aeruginosa PAOΔmexZ = experiment: as above; format: cell-based, Pseudomonas aeruginosa; conditions: strain PAOΔmexZ
P. aeruginosa PAOUW = experiment: as above; format: cell-based, Pseudomonas aeruginosa; conditions: strain PAOUW; antibiotic with RW01 at 100 mg/L
P. aeruginosa 41B = experiment: as above; format: cell-based, Pseudomonas aeruginosa; conditions: strain 41B
P. aeruginosa 125B = experiment: as above; format: cell-based, Pseudomonas aeruginosa; conditions: strain 125B; antibiotic with RW01 at 100 mg/L
[7] = system: PAO1 mutant MIN16_4, nalC(T50P), pilM(Q62X); experiment: MIC, E-test on MHA; format: cell-based; conditions: Pseudomonas aeruginosa, PAO1, read-out: MIC, E-test
[8] = system: PAO1 mutant MIN1_RW01_4, pmrB(F124L); experiment: MIC, E-test on MHA; format: cell-based; conditions: Pseudomonas aeruginosa, PAO1, read-out: MIC, E-test
[9] = system: PAO1 mutant MIN16_1, nalD(T43P); experiment: MIC, E-test on MHA; format: cell-based; conditions: Pseudomonas aeruginosa, PAO1, read-out: MIC, E-test
[10] = system: PAO1 mutant MIN8_1, nalD(R3C), pilM(Q62X); experiment: MIC, E-test on MHA; format: cell-based; conditions: Pseudomonas aeruginosa, PAO1, read-out: MIC, E-test
[11] = system: PAO1 mutant MIN2_RW01_2, pmrB(M292T); experiment: MIC, E-test on MHA; format: cell-based; conditions: Pseudomonas aeruginosa, PAO1, read-out: MIC, E-test
[12] = system: PAO1 mutant MIN2_RW01_3, parS(V152A); experiment: MIC, E-test on MHA; format: cell-based; conditions: Pseudomonas aeruginosa, PAO1, read-out: MIC, E-test
[13] = system: PAO1 mutant MIN4_RW01_4, pmrB(Y98N); experiment: MIC, E-test on MHA; format: cell-based; conditions: Pseudomonas aeruginosa, PAO1, read-out: MIC, E-test
[14] = system: PAO1 mutant MIN16_3, nfxB(nt79∆14), pilB(N349K); experiment: MIC, E-test on MHA; format: cell-based; conditions: Pseudomonas aeruginosa, PAO1, read-out: MIC, E-test
[15] = system: PAO1 mutant MIN16_2, nalC(aa9∆4), pilQ(nt46∆1); experiment: MIC, E-test on MHA; format: cell-based; conditions: Pseudomonas aeruginosa, PAO1, read-out: MIC, E-test
[16] = system: PAO1 mutant MIN1_RW01_1, pmrB(Y98N); experiment: MIC, E-test on MHA; format: cell-based; conditions: Pseudomonas aeruginosa, PAO1, read-out: MIC, E-test
[17] = system: PAO1 mutant MIN8_3, pilZ(nt18InsT); experiment: MIC, E-test on MHA; format: cell-based; conditions: Pseudomonas aeruginosa, PAO1, read-out: MIC, E-test
[18] = system: PAO1 mutant MIN2_RW01_1, pmrB(V215L); experiment: MIC, E-test on MHA; format: cell-based; conditions: Pseudomonas aeruginosa, PAO1, read-out: MIC, E-test
[19] = system: PAO1 mutant MIN8_4, pilZ(nt18InsT); experiment: MIC, E-test on MHA; format: cell-based; conditions: Pseudomonas aeruginosa, PAO1, read-out: MIC, E-test
[20] = system: PAO1 mutant MIN4_RW01_2, pmrB(F124S); experiment: MIC, E-test on MHA; format: cell-based; conditions: Pseudomonas aeruginosa, PAO1, read-out: MIC, E-test
[21] = system: PAO1 mutant MIN1_RW01_3, pmrB(V215L); experiment: MIC, E-test on MHA; format: cell-based; conditions: Pseudomonas aeruginosa, PAO1, read-out: MIC, E-test
[22] = system: PAO1 mutant MIN2_RW01_4, pmrB(M292T); experiment: MIC, E-test on MHA; format: cell-based; conditions: Pseudomonas aeruginosa, PAO1, read-out: MIC, E-test
[23] = system: PAO1 mutant MIN32_1, mexR(R63H), pilB(N349K), PA0646(V316G); experiment: MIC, E-test on MHA; format: cell-based; conditions: Pseudomonas aeruginosa, PAO1, read-out: MIC, E-test
PAO1 one-step mutants = experiment: MIC, Sensititre custom plate, mutants summarised as a group; format: cell-based, Pseudomonas aeruginosa; conditions: mutants generated by minocycline alone
Protocol: Selection of resistant mutants was performed for minocycline with and without RW01 in three independent replicates for wild-type P. aeruginosa reference strain PAO1. Tubes containing Mueller-Hinton broth (MHB) were inoculated and incubated for 24 h at 37°C. Afterward, 1/100 dilution of each tube was incubated at 37°C in MHB to late-exponential growth phase, measured by spectrophotometry at OD600. […] A control plate without antibiotic was included as inoculum control. After overnight incubation, colony counting of each treatment was performed to analyze the generation of resistant population. The mutant prevention concentration (MPC) was defined as the lowest concentration of antibiotic yielding no growth of resistant mutants. Selected mutants were checked for susceptibility profiles by using a Sensititre custom plate (Thermo Fisher Scientific, Massachusetts, USA) for Gram-negative bacteria, following the manufacturer’s instructions.

[24] = strain PAOUWΔoprF (printed PAOΔoprF), antibiotic with RW01 at 100 mg/L
[25] = strain PAOΔoprM, antibiotic with RW01 at 100 mg/L
[26] = Pseudomonas aeruginosa, agent alone, 37°C, 18–22 h, three biological replicates
[27] = antibiotic with RW01 at 100 mg/L
[28] = strain PAOΔmexR, antibiotic with RW01 at 100 mg/L

## N=C(N)NCCC[C@@H]1NC(=O)[C@H]2C[C@H](N)CN2C(=O)[C@H](Cc2c[nH]c3ccccc23)NC(=O)[C@H](CCCNC(=N)N)NC(=O)[C@H]2CCCN2C(=O)[C@H](Cc2c[nH]c3ccccc23)NC1=O [RW01] (HELM PEPTIDE1{R.W.[dP].R.W.[N[C@H]1C[C@H](C(=O)[*:2])N([*:1])C1]}$PEPTIDE1,PEPTIDE1,1:R1-6:R2$$$V2.0)
C57BL/6J females [1]
  signs of pain/toxicity, acute toxicity: None of the doses tested of RW01 showed any of the 11 symptoms indicative of pain/toxicity
C57BL/6J females [2]
  signs of pain/toxicity, cumulative toxicity: None of the doses tested of RW01 showed any of the 11 symptoms indicative of pain/toxicity

## CN(C)[C@@H]1C(O)=C(C(N)=O)C(=O)[C@@]2(O)C(O)=C3C(=O)c4c(O)cccc4[C@@](C)(O)[C@H]3C[C@@H]12 [Tetracycline, tetracycline]
[3]
  MIC: 256 µg/mL (≈ 576 µM)
[4]
  MIC: 256 µg/mL (≈ 576 µM)
[5]
  MIC: 256 µg/mL (≈ 576 µM)
[6]
  MIC: 256 µg/mL (≈ 576 µM)
P. aeruginosa PAOUW∆oprF; [24]
  FICI: 0.223
  FICI-determined effect: Synergy (synergistic effect if FICI is ≤0.5)
P. aeruginosa PAOUW∆oprF; strain PAOUWΔoprF, agent alone, 37°C, 18–22 h, three biological replicates
  MIC: 16 µg/mL
P. aeruginosa PAO1
  FICI: 0.445
  FICI-determined effect: Synergy (synergistic effect if FICI is ≤0.5)
P. aeruginosa PAOΔoprM; Pseudomonas aeruginosa
  MIC: 1 µg/mL
P. aeruginosa PAOΔoprM; strain PAOΔoprM, MIC of the antibiotic with fixed 100 mg/L RW01
  Antibiotic MIC + RW01 100 mg/L: 0.5 µg/mL
P. aeruginosa PAOΔoprM; [25]
  FICI: 0.598
  FICI-determined effect: Additivity (additive effect if 0.5 < FICI ≤ 1.0)
P. aeruginosa 41A; [26]
  MIC: 16 µg/mL
P. aeruginosa 41A; [27]
  FICI-determined effect: Additivity (additive effect if 0.5 < FICI ≤ 1.0)
P. aeruginosa PAOΔmexR; Pseudomonas aeruginosa
  MIC: 16 µg/mL
P. aeruginosa PAOΔmexR; strain PAOΔmexR, MIC of the antibiotic with fixed 100 mg/L RW01
  Antibiotic MIC + RW01 100 mg/L: 4 µg/mL
P. aeruginosa PAOΔmexR; [28]
  FICI: 0.348
  FICI-determined effect: Synergy (synergistic effect if FICI is ≤0.5)
P. aeruginosa 125A
  FICI-determined effect: Synergy (synergistic effect if FICI is ≤0.5)
P. aeruginosa PAOΔmexZ; [26]
  MIC: 16 µg/mL
P. aeruginosa PAOΔmexZ; [27]
  FICI: 0.223
  FICI-determined effect: Synergy (synergistic effect if FICI is ≤0.5)
P. aeruginosa PAOUW
  FICI-determined effect: Synergy (synergistic effect if FICI is ≤0.5)
P. aeruginosa 41B; [26]
  MIC: 16 µg/mL
P. aeruginosa 41B; [27]
  FICI-determined effect: Additivity (additive effect if 0.5 < FICI ≤ 1.0)
P. aeruginosa 125B
  FICI: 0.445
  FICI-determined effect: Synergy (synergistic effect if FICI is ≤0.5)
[7]
  MIC: 64 µg/mL (≈ 144 µM)
[8]
  MIC: 64 µg/mL (≈ 144 µM)
[9]
  MIC: 256 µg/mL (≈ 576 µM)
[10]
  MIC: 256 µg/mL (≈ 576 µM)
[11]
  MIC: 192 µg/mL (≈ 432 µM)
[12]
  MIC: 256 µg/mL (≈ 576 µM)
[13]
  MIC: 96 µg/mL (≈ 216 µM)
[14]
  MIC: 128 µg/mL (≈ 288 µM)
[15]
  MIC: 96 µg/mL (≈ 216 µM)
[16]
  MIC: 192 µg/mL (≈ 432 µM)
[17]
  MIC: 64 µg/mL (≈ 144 µM)
[18]
  MIC: 128 µg/mL (≈ 288 µM)
[19]
  MIC: 64 µg/mL (≈ 144 µM)
[20]
  MIC: 64 µg/mL (≈ 144 µM)
[21]
  MIC: 256 µg/mL (≈ 576 µM)
[22]
  MIC: 96 µg/mL (≈ 216 µM)
[23]
  MIC: 256 µg/mL (≈ 576 µM)

## colistin
PAO1 one-step mutants
  colistin MIC vs wild type: remained unchanged
